According to the OPERA property sets (Mansouri et al. 2018):
In brackets after ≈: the same amount, converted by molar mass.

Settings: not given

In order of falling melting point:
1. Nc1nc2nn[nH]c2c(=O)[nH]1  300 °C
2. CC(C)(C)CC(=O)OCC(=O)[C@@]12OC(C)(C)O[C@@H]1C[C@H]1[C@@H]3CCC4=CC(=O)C=C[C@]4(C)[C@@]3(F)[C@@H](O)C[C@@]12C  295 °C
3. O=C(O)c1ccc2c(c1)C(=O)c1ccccc1C2=O  291 °C
4. O=C1OC(=O)c2c(Cl)c(Cl)c(Cl)c(Cl)c21  254 °C
5. Cc1ncc(CO)c(C(=O)O)c1O  248 °C
6. O=C(O)/C=C/c1ccc(Cl)cc1Cl  234 °C
7. CCn1cc(C(=O)O)c(=O)c2ccc(C)nc21  230 °C
8. COc1cc(C)c(/C=C/C(C)=C/C=C/C(C)=C/C(=O)O)c(C)c1C  229 °C
9. Nc1nc(Cl)cc(Cl)n1  220 °C
10. CC(/C=C/C=C(C)/C=C/[C@@]12O[C@]1(C)C[C@@H](O)CC2(C)C)=C\C=C\C=C(C)\C=C\C=C(C)\C=C\[C@@]12O[C@]1(C)C[C@@H](O)CC2(C)C  208 °C
11. O=C(O)c1ccc(C(=O)c2ccccc2)cc1  199 °C
12. Cl.N=C(N)SCc1ccc(Cl)cc1  197 °C
13. O=C(O)[C@@H](S)[C@@H](S)C(=O)O  193 °C
14. CC(CO)(CO)C(=O)O  190 °C
15. Cc1ccccc1NC(=N)Nc1ccccc1C  179 °C
16. NC(=O)c1ccc(Cl)cc1  174 °C
17. NC(=S)N=C(N)N  172 °C
18. CC(=O)[C@@H]1CC[C@H]2[C@@H]3CCC4=CC(=O)CC[C@]4(C)[C@H]3C(=O)C[C@]12C  172 °C
19. CC(C)=CCC/C(C)=C/C=C/C(C)=C/C=C/C(C)=C/C=C/C=C(C)/C=C/C=C(C)/C=C/C=C(\C)CCCC(C)(C)O  171 °C
20. Brc1cc(Br)c(Br)c(Br)c1Br  160 °C
21. C[C@@H]1C[C@@]2(C)[C@@H](CC[C@@H]3[C@@H]2CC[C@]2(C)[C@@H](O)CC[C@@H]32)CC1=O  151 °C
22. O=[N+]([O-])c1c(Cl)c(Cl)c(Cl)c(Cl)c1Cl  144 °C
23. CC1=C(C(=O)O)CCC1(C)C  135 °C
24. c1ccc(C2=N[C@H](c3ccccc3)[C@@H](c3ccccc3)N2)cc1  134 °C
25. O=C(/C=C/C=C/c1ccc2c(c1)OCO2)N1CCCCC1  132 °C
26. O=C1c2ccccc2-c2ccc(Cl)cc21  126 °C
27. CCC1(c2ccccc2)C(=O)N(COC)C(=O)N(COC)C1=O  117 °C
28. O=[N+]([O-])c1cccc2cnccc12  110 °C
29. C=C(C)C(N)=O  110 °C
30. Clc1cccc2c1Oc1ccccc1O2  104 °C
31. CC(=O)NBr  104 °C
32. CO[C@H]1C=CC2=CCN3CCC4=C(CC(=O)OC4)[C@]23C1  99.5 °C
33. COC(=O)C1(S(=O)(=O)c2ccc(Br)cc2)CCC1  95 °C
34. COc1ccc(C(=O)OC(=O)c2ccc(OC)cc2)cc1  94.5 °C
35. CN(C)c1ccc(N=O)cc1  92.5 °C
36. CN1CC[C@]23c4c5ccc(OCCN6CCOCC6)c4O[C@H]2[C@@H](O)C=C[C@H]3[C@H]1C5  91 °C
37. CCCCCCCCCCCCCCCCCCCCCCCCCCCC(=O)O  90.9 °C
38. Oc1ccc(NCc2ccccc2)cc1  88 °C
39. Cc1cc(N(C)C)nc(Cl)n1  87 °C
40. O=S(=O)(Cl)c1ccc(I)cc1  85 °C
41. CCCCCC(C=O)=Cc1ccccc1  80 °C
42. Cc1ncc([N+](=O)[O-])n1CC(C)O (configuration not stated)  76 °C
43. Cc1cc(C)cc([N+](=O)[O-])c1  75 °C
44. CC(=O)N=C1C=CC(=O)C=C1  74.5 °C
45. Cc1ccc(S(=O)(=O)O)c(C)c1  57 °C
46. Cc1c([N+](=O)[O-])cc(C(C)C)c(O)c1[N+](=O)[O-]  55.5 °C
47. c1ccc(CSc2ccccc2)cc1  43.5 °C
48. c1ccc2nnccc2c1  38 °C
49. CC1(O)CCCC1  36 °C
50. Brc1ccc2cccnc2c1  34 °C
51. Clc1ccccc1-c1ccccc1  34 °C
52. NCCCCCCCN  28.9 °C
53. COC(=O)OC  3 °C
54. C1CCNCC1  -7 °C
55. c1ccnnc1  -8 °C
56. O=C1CCCCCO1  -18 °C
57. CCOP(=S)(OCC)SC1OCCOC1SP(=S)(OCC)OCC (configuration not stated)  -20 °C
58. CCOC(=O)C(Cl)Cc1cc(-n2nc(C)n(C(F)F)c2=O)c(F)cc1Cl (configuration not stated)  -22.1 °C
59. N#CCc1ccccc1  -23.8 °C
60. CN1CCCC1=O  -24 °C
61. CC(=O)CC(=O)OC(C)C  -27.3 °C
62. FCc1ccccc1  -35 °C
63. COC(C)(C)OC  -47 °C
64. CN(C)CCN(C)C  -55 °C
65. CCCCCCCCC(=O)Cl  -60.5 °C
66. CCCC(C)C(O)CC (configuration not stated)  -123 °C

In order of rising log10 Koc (L/kg):
1. NC(N)=O  0.15
2. COCC(=O)N(c1c(C)cccc1C)C(C)C(=O)OC (configuration not stated)  1.57
3. CCOP(=S)(OCC)Oc1ccc(SC)cc1  3.18
4. Clc1ccccc1-c1ccccc1  3.47
5. O=[N+]([O-])c1c(Cl)c(Cl)c(Cl)c(Cl)c1Cl  3.98
6. CCCCCCCCCc1ccc(OP(=O)(Oc2ccccc2)Oc2ccccc2)cc1  4.06
7. c1ccc2c(c1)-c1cccc3cccc-2c13  4.8

For `Cc1cc(-c2cc(C)c(OCC3CO3)c(C)c2)cc(C)c1OCC1CO1` (configuration not stated), the ready biodegradability was “not readily biodegradable”.
In the case of `O=[N+]([O-])c1c(Cl)c(Cl)c(Cl)c(Cl)c1Cl`, the ready biodegradability is reported as “not readily biodegradable”.
For `O=C1OC(=O)c2c(Cl)c(Cl)c(Cl)c(Cl)c21`, the ready biodegradability was “not readily biodegradable”.
In the case of `NC(N)=O`, the ready biodegradability is reported as “readily biodegradable”.
For `N#CCc1ccccc1`, the ready biodegradability was “readily biodegradable”.
In the case of `Cc1ccc(S(=O)(=O)O)c(C)c1`, the ready biodegradability is reported as “readily biodegradable”.
For `C1CCNCC1`, the ready biodegradability was “readily biodegradable”.
In the case of `COCC(=O)N(c1c(C)cccc1C)C(C)C(=O)OC` (configuration not stated), the ready biodegradability is reported as “not readily biodegradable”.
For `CCCCCC(C=O)=Cc1ccccc1`, the ready biodegradability was “readily biodegradable”.
In the case of `O=C(O)CN(CC(=O)O)CC(=O)O`, the ready biodegradability is reported as “not readily biodegradable”.
With `CCCCCCCCCCc1ccc(O)c(/C=N/O)c1` the ready biodegradability was “readily biodegradable”.
In the case of `CN1CCCC1=O`, the ready biodegradability is reported as “readily biodegradable”.
For `O=C1CCCCCO1`, the ready biodegradability was “readily biodegradable”.
In the case of `c1ccc2c(c1)-c1cccc3cccc-2c13`, the ready biodegradability is reported as “not readily biodegradable”.

In order of rising boiling point:
1. COC(C)(C)OC  83 °C
2. COC(=O)OC  90.5 °C
3. C1CCNCC1  106 °C
4. CCOS(=O)(=O)C(F)(F)F  115 °C
5. CN(C)CCN(C)C  121 °C
6. OCCCF  128 °C
7. CC1(O)CCCC1  136 °C
8. CCC(=O)CCl  138 °C
9. FCc1ccccc1  140 °C
10. CCCC(C)CBr (configuration not stated)  141 °C
11. O=[N+]([O-])CBr  149 °C
12. NC[C@H]1CCCO1  153 °C
13. O=S(=O)(O)C(F)(F)F  166 °C
14. CCCC(C)C(O)CC (configuration not stated)  170 °C
15. Cc1ccsc1Br  176 °C
16. FC(F)(Br)C(F)(F)C(F)(F)C(F)(F)C(F)(F)C(F)(F)C(F)(F)C(F)(F)Br  180 °C
17. CC(=O)CC(=O)OC(C)C  186 °C
18. Cc1ccccc1CCl  198 °C
19. O=S=Nc1ccccc1  200 °C
20. CN1CCCC1=O  202 °C
21. CCCCOC(=O)C(Cl)(Cl)Cl  204 °C
22. Cc1nccn1C  206 °C
23. Cc1ccc2c(c1)CC=C2  207 °C
24. c1ccnnc1  208 °C
25. CCCCCCCCC(=O)Cl  215 °C
26. O=C1CCCCCO1  215 °C
27. CC1CCCc2ccccc21 (configuration not stated)  221 °C
28. NCCCCCCCN  224 °C
29. N#CCc1ccccc1  234 °C
30. CC1=C(C(=O)O)CCC1(C)C  256 °C
31. CCc1cnc2ccccc2c1  266 °C
32. Cc1cc(C)c2ncccc2c1  268 °C
33. Clc1ccccc1-c1ccccc1  274 °C
34. Cc1cc(C)cc([N+](=O)[O-])c1  274 °C
35. CCc1cccc(C)c1N(C(=O)CCl)[C@@H](C)COC  282 °C
36. Brc1ccc2cccnc2c1  290 °C
37. O=[N+]([O-])c1c(Cl)c(Cl)c(Cl)c(Cl)c1Cl  328 °C
38. CCOC(=O)C(Cl)Cc1cc(-n2nc(C)n(C(F)F)c2=O)c(F)cc1Cl (configuration not stated)  352 °C
39. c1ccc2c(c1)-c1cccc3cccc-2c13  384 °C
40. CCCCCCCCCc1ccc(OP(=O)(Oc2ccccc2)Oc2ccccc2)cc1  471 °C

In order of falling log10 vapour pressure (mmHg):
1. COC(C)(C)OC  2.01
2. COC(=O)OC  1.74
3. C1CCNCC1  1.51
4. FCc1ccccc1  0.832
5. O=[N+]([O-])CBr  0.491
6. CN1CCCC1=O  -0.462
7. O=C1CCCCCO1  -0.87
8. O=S(=O)(O)C(F)(F)F  -1
9. N#CCc1ccccc1  -1.05
10. C=C(C)C(N)=O  -1.07
11. CCCCCCCCCC(C)O (configuration not stated)  -1.48
12. Clc1ccccc1-c1ccccc1  -2.86
13. Clc1cccc2c1Oc1ccccc1O2  -4.05
14. O=[N+]([O-])c1c(Cl)c(Cl)c(Cl)c(Cl)c1Cl  -4.3
15. Clc1ccc(-c2cc(Cl)c(Cl)cc2Cl)c(Cl)c1  -4.66
16. NC(N)=O  -4.92
17. COCC(=O)N(c1c(C)cccc1C)C(C)C(=O)OC (configuration not stated)  -4.93
18. c1ccc2c(c1)-c1cccc3cccc-2c13  -5.04
19. CCOC(=O)C(Cl)Cc1cc(-n2nc(C)n(C(F)F)c2=O)c(F)cc1Cl (configuration not stated)  -6.92

In order of rising log10 Henry constant (atm·m³/mol):
1. CN1CCCC1=O  -8.49
2. CCCCCCCCCc1ccc(OP(=O)(Oc2ccccc2)Oc2ccccc2)cc1  -7.85
3. C1CCNCC1  -5.35
4. c1ccc2c(c1)-c1cccc3cccc-2c13  -5.05
5. Clc1ccc(-c2cc(Cl)c(Cl)cc2Cl)c(Cl)c1  -4.11
6. Clc1ccc(-c2ccc(Cl)c(Cl)c2)cc1  -4
7. Clc1ccccc1-c1ccccc1  -3.13

`CCOP(=O)(OCC)SCS(=O)CC` (configuration not stated) showed a solubility of 30.7 mM (≈ 8000 µg/mL).

In order of rising log10 Koa:
1. C1CCNCC1  4.04
2. c1ccc2c(c1)-c1cccc3cccc-2c13  8.88
3. Clc1cc2oc3cc(Cl)c(Cl)c(Cl)c3c2c(Cl)c1Cl  10.9

Compound `c1ccc2c(c1)-c1cccc3cccc-2c13` has a log10 biodegradation half-life (days) of 2.17.

Same assay, conditions: fish

In order of falling log10 BCF:
1. Brc1cc(Oc2c(Br)c(Br)c(Br)c(Br)c2Br)c(Br)c(Br)c1Br  5.44
2. c1ccc2c(c1)-c1cccc3cccc-2c13  3.56
3. O=[N+]([O-])c1c(Cl)c(Cl)c(Cl)c(Cl)c1Cl  2.74

In order of falling log10 biotransformation half-life (days):
1. Clc1ccc(-c2cc(Cl)c(Cl)cc2Cl)c(Cl)c1  2.73
2. Clc1cccc(-c2c(Cl)ccc(Cl)c2Cl)c1  2.47
3. Clc1cc(-c2cc(Cl)c(Cl)c(Cl)c2Cl)cc(Cl)c1Cl  2.32
4. Clc1cc(Cl)c(Oc2cc(Cl)c(Cl)c(Cl)c2Cl)cc1Cl  1.97
5. c1ccc2c(c1)-c1cccc3cccc-2c13  -0.02
6. O=[N+]([O-])c1c(Cl)c(Cl)c(Cl)c(Cl)c1Cl  -0.17
